Source: paper PMC2713365 (International journal for parasitology, 2009)

Tests used:
AsGAR-1 [1] = target: T1, AsGAR-1 (Ascaris suum, UniProt C0KJK1); experiment: yeast functional expression, antagonism of […] ACh by […] compound; type: cell-based; conditions: read-out: % of control growth at 10^-4 M
AsGAR-1 [2] = target: T1, AsGAR-1; experiment: cell-based; conditions: read-out: yeast functional expression, growth reporter, agonist at 10^-4 M
AsGAR-1 [3] = target: T1, AsGAR-1; experiment: yeast functional expression, antagonism of […] ACh by […] compound; type: cell-based; conditions: read-out: % inhibition at 10^-4 M

SMILES	remaining activity at 100 µM (AsGAR-1 [1])	fold induction at 100 µM (AsGAR-1 [2])	also measured
CC(C)NCC(O)COc1cccc2ccccc12 (centres unmarked) [Prop, propranolol]	41.2 ± 8.9%	–	–
C[N+](C)(C)CC#CCN1CCCC1=O [Oxo, oxotremorine M]	–	8.2 ± 1.7	–
COC(=O)C1=CCCN(C)C1 [Arec, arecoline]	–	10.2 ± 1.6	–
O=C(CCCN1CCC2(CC1)C(=O)NCN2c1ccccc1)c1ccc(F)cc1 [Spip, spiperone]	52.8 ± 7.6%	–	–
CC(C[N+](C)(C)C)OC(N)=O (centres unmarked) [Beth, bethanechol]	–	7.7 ± 0.8	–
CN1[C@@H]2CC[C@H]1C[C@@H](OC(=O)C(CO)c1ccccc1)C2 (some centres unmarked) [Atr, atropine]	–	–	inhibition at 100 µM (AsGAR-1 [3]): 62.2%
C[N+](C)(C)CCOC(N)=O [Carb, carbachol]	–	10.8 ± 1.7	–
CN1CCN2c3ccccc3Cc3ccccc3C2C1 (centres unmarked) [Mian, mianserin]	24 ± 0.1%	–	–
